Measured values reported in patent US12331035B2, “Bicyclic compound and use thereof” (SK BIOPHARMACEUTICALS CO., LTD., priority 2019, dated 2025).

Each compound was assayed against T1, PRMT5-MEP50 enzyme complex (Homo sapiens, UniProt O14744) (assay: In vitro PRMT5 enzyme activity assay (methylation of histone H4 arginine H4R3, ELISA absorbance at 450 nm)). Settings: S-adenosylmethionine, histone H4 peptide, 2 hours at room temperature, 8 points 10 μM to 0.128 nM.
T1 construct: purchased BPS Bioscience (USA) 51045
T1 sequence (O14744 2-637 limits assumed): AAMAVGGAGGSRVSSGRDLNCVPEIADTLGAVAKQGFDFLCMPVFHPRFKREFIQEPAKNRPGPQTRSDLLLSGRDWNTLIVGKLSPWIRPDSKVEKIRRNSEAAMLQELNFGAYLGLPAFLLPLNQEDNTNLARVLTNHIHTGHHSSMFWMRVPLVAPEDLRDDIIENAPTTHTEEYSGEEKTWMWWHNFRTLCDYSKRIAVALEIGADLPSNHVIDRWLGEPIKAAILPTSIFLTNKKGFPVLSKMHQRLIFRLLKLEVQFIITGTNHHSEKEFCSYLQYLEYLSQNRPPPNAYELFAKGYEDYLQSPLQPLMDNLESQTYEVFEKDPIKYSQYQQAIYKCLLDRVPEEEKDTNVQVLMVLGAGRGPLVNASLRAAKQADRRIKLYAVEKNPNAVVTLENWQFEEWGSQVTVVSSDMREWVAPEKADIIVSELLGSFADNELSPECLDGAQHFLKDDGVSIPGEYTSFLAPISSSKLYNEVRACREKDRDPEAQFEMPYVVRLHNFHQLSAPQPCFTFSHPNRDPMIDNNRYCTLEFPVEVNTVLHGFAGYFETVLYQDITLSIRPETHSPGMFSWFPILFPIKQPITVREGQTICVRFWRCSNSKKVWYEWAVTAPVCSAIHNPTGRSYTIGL
T1 sequence (Q9BQA1 2-342 partner limits assumed): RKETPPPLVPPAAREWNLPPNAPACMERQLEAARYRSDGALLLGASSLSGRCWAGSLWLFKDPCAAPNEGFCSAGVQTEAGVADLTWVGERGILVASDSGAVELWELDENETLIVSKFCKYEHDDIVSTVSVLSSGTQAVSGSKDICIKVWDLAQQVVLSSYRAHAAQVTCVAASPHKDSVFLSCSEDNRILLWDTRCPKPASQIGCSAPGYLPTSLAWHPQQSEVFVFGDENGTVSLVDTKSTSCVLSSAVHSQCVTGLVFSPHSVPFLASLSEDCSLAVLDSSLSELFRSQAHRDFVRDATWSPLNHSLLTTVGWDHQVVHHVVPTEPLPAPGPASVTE
Format: biochemical
Outline: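 Human PRMT5-MEP50 (5 μg/mL working stock) with 2 μM SAM stock on histone H4 (1-20) peptide-coated plates, compound 8-point 1:5 series from 10 μM, 2 h at room temperature. H4R3 methylation detected by antibody/HRP ELISA, absorbance 450 nm; IC50 calculated.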
In the case of `CC(C)C(=O)N1CCN(c2ccc3c(c2)CCN(C[C@H](O)CN2CCc4ccccc4C2)C3=O)CC1` [Example 70, 2-[(2R)-3-(3,4-dihydro-1H-isoquinolin-2-yl)-2-hydroxy-propyl]-6-[4-(2-methylpropanoyl)piperazin-1-yl]-3,4-dihydroisoquinolin-1-one], the IC50 is reported as 1 to 100 nM. For `CC(C)(C)C(=O)N1CCN(c2ccc3c(c2)CCN(C[C@H](O)CN2CCc4ccccc4C2)C3=O)CC1` [Example 71, 2-[(2R)-3-(3,4-dihydro-1H-isoquinolin-2-yl)-2-hydroxy-propyl]-6-[4-(2,2-dimethylpropanoyl)piperazin-1-yl]-3,4-dihydroisoquinolin-1-one], the IC50 was 1 to 100 nM. `CC(C)(C)OC(=O)N1CC2CC1CN2c1ccc2c(c1)CCN(C[C@H](O)CN1CCc3ccccc3C1)C2=O` (stereo partly drawn) [Example 72, tert-butyl 5-[2-[(2R)-3-(3,4-dihydro-1H-isoquinolin-2-yl)-2-hydroxy-propyl]-1-oxo-3,4-dihydroisoquinolin-6-yl]-2,5-diazabicyclo[2.2.1]heptane-2-carboxylate] showed an IC50 of 100 to 1000 nM. `O=C1c2ccc(N3CC4CC3CO4)cc2CCN1C[C@H](O)CN1CCc2ccccc2C1` (stereo partly drawn) [Example 73, 2-[(2R)-3-(3,4-dihydro-1H-isoquinolin-2-yl)-2-hydroxy-propyl]-6-(2-oxa-5-azabicyclo[2.2.1]heptan-5-yl)-3,4-dihydroisoquinolin-1-one] was tested, and the IC50 was 100 to 1000 nM. With `O=C1c2ccc(Cl)nc2CCN1C[C@H](O)CN1CCc2ccccc2C1` [Example 75, 2-chloro-6-[(2R)-3-(3,4-dihydro-1H-isoquinolin-2-yl)-2-hydroxy-propyl]-7,8-dihydro-1,6-naphthyridin-5-one] the IC50 was 100 to 1000 nM. Compound `O=C1c2ccc(N3CC4CC3CN4)cc2CCN1C[C@H](O)CN1CCc2ccccc2C1` (stereo partly drawn) [Example 76, 6-(2,5-diazabicyclo[2.2.1]heptan-2-yl)-2-[(2R)-3-(3,4-dihydro-1H-isoquinolin-2-yl)-2-hydroxy-propyl]-3,4-dihydroisoquinolin-1-one] has an IC50 of 100 to 1000 nM. `O=C1c2ccc(NC3CCCNC3)cc2CCN1C[C@H](O)CN1CCc2ccccc2C1` (stereo partly drawn) [Example 77, 2-[(2R)-3-(3,4-dihydro-1H-isoquinolin-2-yl)-2-hydroxy-propyl]-6-(3-piperidylamino)-3,4-dihydroisoquinolin-1-one] gave an IC50 of 100 to 1000 nM. Work on `CC(C)(C)OC(=O)N1CCCN(c2ccc3c(c2)CCN(C[C@H](O)CN2CCc4ccccc4C2)C3=O)CC1` [Example 78, tert-butyl 4-[2-[(2R)-3-(3,4-dihydro-1H-isoquinolin-2-yl)-2-hydroxy-propyl]-1-oxo-3,4-dihydroisoquinolin-6-yl]-1,4-diazepane-1-carboxylate] yielded an IC50 of 1 to 100 nM. `CN1CCCN(c2ccc3c(c2)CCN(C[C@H](O)CN2CCc4ccccc4C2)C3=O)CC1=O` [Example 79, 2-[(2R)-3-(3,4-dihydro-1H-isoquinolin-2-yl)-2-hydroxy-propyl]-6-(4-methyl-3-oxo-1,4-diazepan-1-yl)-3,4-dihydroisoquinolin-1-one] showed an IC50 of 1 to 100 nM. Work on `CC(=O)N1CCCN(c2ccc3c(c2)CCN(C[C@H](O)CN2CCc4ccccc4C2)C3=O)CC1` [Example 80, 6-(4-acetyl-1,4-diazepan-1-yl)-2-[(2R)-3-(3,4-dihydro-1H-isoquinolin-2-yl)-2-hydroxy-propyl]-3,4-dihydroisoquinolin-1-one] yielded an IC50 of 1 to 100 nM. For `CC(=O)N1CC2CC1CN2c1ccc2c(c1)CCN(C[C@H](O)CN1CCc3ccccc3C1)C2=O` (stereo partly drawn) [Example 81, 6-(5-acetyl-2,5-diazabicyclo[2.2.1]heptan-2-yl)-2-[(2R)-3-(3,4-dihydro-1H-isoquinolin-2-yl)-2-hydroxy-propyl]-3,4-dihydroisoquinolin-1-one], the IC50 was 1 to 100 nM. With `CC(=O)N1CCN(c2ccc3c(c2)CCN(C[C@H](O)CN2CCc4ccccc4C2)C3=O)CC12CC2` [Example 82, 6-(4-acetyl-4,7-diazaspiro[2.5]octan-7-yl)-2-[(2R)-3-(3,4-dihydro-1H-isoquinolin-2-yl)-2-hydroxy-propyl]-3,4-dihydroisoquinolin-1-one] the IC50 was 1 to 100 nM.
